From ChEMBL document CHEMBL1136604, “Cryptophycin affinity labels: synthesis and biological activity of a benzophenone analogue of cryptophycin-24” (Bioorg Med Chem Lett, 2003)
≈ marks a conversion by molar mass, not a printed value.

What follows are compounds tested on HCT-116 (assay: Inhibitory activity against HCT116 cells after 24 hr cell growth). Conditions: Homo sapiens, HCT-116, 24 h.
Type: functional, cell-based

| Compound | IC50 |
| --- | --- |
| COc1ccc(C[C@H]2NC(=O)/C=C/C[C@@H]([C@H](C)[C@H]3O[C@@H]3c3ccc(C(=O)c4ccccc4)cc3)OC(=O)[C@H](CC(C)C)OC(=O)CCNC2=O)cc1 | 1.1 nM |
| COc1ccc(C[C@H]2NC(=O)/C=C/C[C@@H]([C@H](C)[C@@H]3O[C@@H]3c3ccc(C(=O)c4ccccc4)cc3)OC(=O)[C@H](CC(C)C)OC(=O)CCNC2=O)cc1 | 253 nM |
| COc1ccc(C[C@H]2NC(=O)/C=C/C[C@@H]([C@H](C)[C@H]3O[C@@H]3c3ccccc3)OC(=O)[C@H](CC(C)C)OC(=O)CCNC2=O)cc1 [ARENASTATIN A] | 0.285 nM |
| COc1ccc(C[C@H]2NC(=O)/C=C/C[C@@H]([C@H](C)[C@H]3O[C@@H]3c3ccccc3)OC(=O)[C@H](CC(C)C)OC(=O)[C@H](C)CNC2=O)cc1Cl [CRYPTOPHYCIN A] | 0.027 nM |

The compounds below were run on KB (assay: Cytotoxicity against KB cells). Conditions: Homo sapiens.
Type: functional, cell-based

| Compound | IC50 |
| --- | --- |
| COc1ccc(C[C@H]2NC(=O)/C=C/C[C@@H]([C@H](C)[C@H]3O[C@@H]3c3ccccc3)OC(=O)[C@H](CC(C)C)OC(=O)CCNC2=O)cc1 [ARENASTATIN A] | 0.005 ng/mL (≈ 0.00824 nM) |

The compounds below were run on MCF7S (assay: Inhibitory activity against MCF-7 cells after 72 hr cell growth). Conditions: Homo sapiens.
Type: functional, cell-based

| Compound | IC50 |
| --- | --- |
| COc1ccc(C[C@H]2NC(=O)/C=C/C[C@@H]([C@H](C)[C@H]3O[C@@H]3c3ccc(C(=O)c4ccccc4)cc3)OC(=O)[C@H](CC(C)C)OC(=O)CCNC2=O)cc1 | 0.078 nM |
| COc1ccc(C[C@H]2NC(=O)/C=C/C[C@@H]([C@H](C)[C@@H]3O[C@@H]3c3ccc(C(=O)c4ccccc4)cc3)OC(=O)[C@H](CC(C)C)OC(=O)CCNC2=O)cc1 | 6 nM |
| COc1ccc(C[C@H]2NC(=O)/C=C/C[C@@H]([C@H](C)[C@H]3O[C@@H]3c3ccccc3)OC(=O)[C@H](CC(C)C)OC(=O)CCNC2=O)cc1 [ARENASTATIN A] | 0.13 nM |
| COc1ccc(C[C@H]2NC(=O)/C=C/C[C@@H]([C@H](C)[C@H]3O[C@@H]3c3ccccc3)OC(=O)[C@H](CC(C)C)OC(=O)[C@H](C)CNC2=O)cc1Cl [CRYPTOPHYCIN A] | 0.003 nM |

The compounds below were run on NCI/ADR-RES (assay: Inhibitory activity against MCF7-ADR cells after 72 hr cell growth). Conditions: Homo sapiens.
Type: functional, cell-based

| Compound | IC50 |
| --- | --- |
| COc1ccc(C[C@H]2NC(=O)/C=C/C[C@@H]([C@H](C)[C@H]3O[C@@H]3c3ccc(C(=O)c4ccccc4)cc3)OC(=O)[C@H](CC(C)C)OC(=O)CCNC2=O)cc1 | 70 nM |
| COc1ccc(C[C@H]2NC(=O)/C=C/C[C@@H]([C@H](C)[C@@H]3O[C@@H]3c3ccc(C(=O)c4ccccc4)cc3)OC(=O)[C@H](CC(C)C)OC(=O)CCNC2=O)cc1 | 447 nM |
| COc1ccc(C[C@H]2NC(=O)/C=C/C[C@@H]([C@H](C)[C@H]3O[C@@H]3c3ccccc3)OC(=O)[C@H](CC(C)C)OC(=O)CCNC2=O)cc1 [ARENASTATIN A] | 0.164 nM |
| COc1ccc(C[C@H]2NC(=O)/C=C/C[C@@H]([C@H](C)[C@H]3O[C@@H]3c3ccccc3)OC(=O)[C@H](CC(C)C)OC(=O)[C@H](C)CNC2=O)cc1Cl [CRYPTOPHYCIN A] | 0.013 nM |

What follows are compounds tested against Tubulin (assay: Concentration required to reduce the amount of pelleted tubulin). Conditions: not given.
Type: protein-complex assay

| Compound | IC50 |
| --- | --- |
| COc1ccc(C[C@H]2NC(=O)/C=C/C[C@@H]([C@H](C)[C@H]3O[C@@H]3c3ccc(C(=O)c4ccccc4)cc3)OC(=O)[C@H](CC(C)C)OC(=O)CCNC2=O)cc1 | 7.4 µM |
| COc1ccc(C[C@H]2NC(=O)/C=C/C[C@@H]([C@H](C)[C@@H]3O[C@@H]3c3ccc(C(=O)c4ccccc4)cc3)OC(=O)[C@H](CC(C)C)OC(=O)CCNC2=O)cc1 | > 100 µM |
| COc1ccc(C[C@H]2NC(=O)/C=C/C[C@@H]([C@H](C)[C@H]3O[C@@H]3c3ccccc3)OC(=O)[C@H](CC(C)C)OC(=O)CCNC2=O)cc1 [ARENASTATIN A] | 15 µM |
| COc1ccc(C[C@H]2NC(=O)/C=C/C[C@@H]([C@H](C)[C@H]3O[C@@H]3c3ccccc3)OC(=O)[C@H](CC(C)C)OC(=O)[C@H](C)CNC2=O)cc1Cl [CRYPTOPHYCIN A] | 3.7 µM |
